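Five compound concentrations were applied to cells in 96-well plates for 48 hours; endpoints were derived by simple linear interpolation of the resulting dose-response curve. GI50 = concentration required for 50% inhibition of growth. TGI marks complete inhibition of growth.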
How the values were obtained:
Test in all cases: growth of human tumour cells (NCI), 48 h
PC-3 prostate = system: PC-3 prostate
NCI-H522 lung = system: NCI-H522 lung
T-47D breast = system: T-47D breast
U251 CNS = system: U251 CNS
MCF7 breast = system: MCF7 breast
SF-295 CNS = system: SF-295 CNS
HL-60(TB) leukemia = system: HL-60(TB) leukemia
OVCAR-5 ovarian = system: OVCAR-5 ovarian
SNB-19 CNS = system: SNB-19 CNS
HOP-92 NSCLC = system: HOP-92 NSCLC
SF-539 CNS = system: SF-539 CNS
HCC-2998 colon = system: HCC-2998 colon
HT29 colon = system: HT29 colon
UO-31 renal = system: UO-31 renal
MDA-MB-435 = system: MDA-MB-435
UACC-257 melanoma = system: UACC-257 melanoma
A549 NSCLC = system: A549 NSCLC
SK-MEL-5 melanoma = system: SK-MEL-5 melanoma
NCI-H226 lung = system: NCI-H226 lung
OVCAR-8 ovarian = system: OVCAR-8 ovarian
HOP-62 NSCLC = system: HOP-62 NSCLC
M14 melanoma = system: M14 melanoma
NCI-H23 lung = system: NCI-H23 lung
UACC-62 melanoma = system: UACC-62 melanoma
NCI-H460 lung = system: NCI-H460 lung
TK-10 renal = system: TK-10 renal
LOX IMVI melanoma = system: LOX IMVI melanoma
SR leukemia = system: SR leukemia
BT-549 breast = system: BT-549 breast
IGROV1 ovarian = system: IGROV1 ovarian
HCT-15 colon = system: HCT-15 colon
KM12 colon = system: KM12 colon
COLO 205 colon = system: COLO 205 colon
OVCAR-3 ovarian = system: OVCAR-3 ovarian
MDA-MB-231 breast = system: MDA-MB-231 breast
MOLT-4 leukemia = system: MOLT-4 leukemia
CAKI-1 renal = system: CAKI-1 renal
SNB-75 CNS = system: SNB-75 CNS
EKVX NSCLC = system: EKVX NSCLC
RPMI-8226 leukemia = system: RPMI-8226 leukemia
NCI/ADR-RES ovarian = system: NCI/ADR-RES ovarian
SK-MEL-2 melanoma = system: SK-MEL-2 melanoma
MALME-3M melanoma = system: MALME-3M melanoma
DU-145 prostate = system: DU-145 prostate
OVCAR-4 ovarian = system: OVCAR-4 ovarian
CCRF-CEM leukemia = system: CCRF-CEM leukemia
SF-268 CNS = system: SF-268 CNS
RXF 393 renal = system: RXF 393 renal
SK-OV-3 ovarian = system: SK-OV-3 ovarian
A498 renal = system: A498 renal
SN12C renal = system: SN12C renal
SK-MEL-28 melanoma = system: SK-MEL-28 melanoma
K-562 leukemia = system: K-562 leukemia
SW-620 colon = system: SW-620 colon
HCT-116 colon = system: HCT-116 colon
HS 578T breast = system: HS 578T breast
ACHN renal = system: ACHN renal
786-0 renal = system: 786-0 renal

## COc1c(C(N)=O)cc(-c2ccc(Cl)cc2)cc1-c1ccc(S(N)(=O)=O)cc1
PC-3 prostate
  GI50: 7.08 µM
  TGI: 24.8 µM
NCI-H522 lung
  GI50: 8.11 µM
  TGI: > 20.8 µM
T-47D breast
  GI50: 9.71 µM
  TGI: > 25 µM
U251 CNS
  GI50: 9.52 µM
  TGI: > 25 µM
MCF7 breast
  GI50: 11.9 µM
  TGI: > 25 µM
SF-295 CNS
  GI50: 11.2 µM
  TGI: > 25 µM
HL-60(TB) leukemia
  GI50: 7.19 µM
  TGI: > 17.9 µM
OVCAR-5 ovarian
  GI50: 15 µM
  TGI: > 25 µM
SNB-19 CNS
  GI50: 14 µM
  TGI: > 25 µM
HOP-92 NSCLC
  GI50: 3.26 µM
  TGI: 10.4 µM
SF-539 CNS
  GI50: 14.2 µM
  TGI: > 25 µM
HCC-2998 colon
  GI50: 11.4 µM
  TGI: > 25 µM
HT29 colon
  GI50: 11 µM
  TGI: > 25 µM
UO-31 renal
  GI50: 9.95 µM
  TGI: > 23.5 µM
MDA-MB-435
  GI50: 11.4 µM
  TGI: > 25 µM
UACC-257 melanoma
  GI50: 8.72 µM
  TGI: > 25 µM
A549 NSCLC
  GI50: 8.33 µM
  TGI: > 25 µM
SK-MEL-5 melanoma
  GI50: 7.4 µM
  TGI: > 25 µM
NCI-H226 lung
  GI50: 9.52 µM
  TGI: > 25 µM
OVCAR-8 ovarian
  GI50: 9.33 µM
  TGI: > 25 µM
HOP-62 NSCLC
  GI50: 18.8 µM
  TGI: > 25 µM
M14 melanoma
  GI50: > 17.2 µM
  TGI: > 25 µM
NCI-H23 lung
  GI50: > 18.3 µM
  TGI: > 25 µM
UACC-62 melanoma
  GI50: 12.8 µM
  TGI: > 25 µM
NCI-H460 lung
  GI50: 11.5 µM
  TGI: > 25 µM
TK-10 renal
  GI50: 6.65 µM
  TGI: 18.8 µM
LOX IMVI melanoma
  GI50: 12.4 µM
  TGI: > 25 µM
SR leukemia
  GI50: 6 µM
  TGI: 15.7 µM
BT-549 breast
  GI50: 10.5 µM
  TGI: > 25 µM
IGROV1 ovarian
  GI50: 10.4 µM
  TGI: > 25 µM
HCT-15 colon
  GI50: 9.66 µM
  TGI: > 25 µM
KM12 colon
  GI50: 11 µM
  TGI: > 25 µM
COLO 205 colon
  GI50: > 17.6 µM
  TGI: > 25 µM
OVCAR-3 ovarian
  GI50: 9.79 µM
  TGI: > 25 µM
MDA-MB-231 breast
  GI50: 10.3 µM
  TGI: 24.2 µM
MOLT-4 leukemia
  GI50: 8.96 µM
  TGI: > 20.7 µM
CAKI-1 renal
  GI50: 10.9 µM
  TGI: > 25 µM
SNB-75 CNS
  GI50: 7.76 µM
  TGI: > 25 µM
EKVX NSCLC
  GI50: 8.91 µM
  TGI: > 25 µM
RPMI-8226 leukemia
  GI50: 9.13 µM
  TGI: > 25 µM
NCI/ADR-RES ovarian
  GI50: > 17.5 µM
  TGI: > 25 µM
SK-MEL-2 melanoma
  GI50: 7.89 µM
  TGI: 21 µM
MALME-3M melanoma
  GI50: 12.7 µM
  TGI: > 25 µM
DU-145 prostate
  GI50: 9.29 µM
  TGI: > 25 µM
OVCAR-4 ovarian
  GI50: 10.6 µM
  TGI: > 25 µM
CCRF-CEM leukemia
  GI50: 8.53 µM
  TGI: > 25 µM
SF-268 CNS
  GI50: 8.81 µM
  TGI: > 25 µM
RXF 393 renal
  GI50: 7.88 µM
  TGI: > 25 µM
SK-OV-3 ovarian
  GI50: > 22 µM
  TGI: > 25 µM
A498 renal
  GI50: 9.03 µM
  TGI: > 23.3 µM
SN12C renal
  GI50: 10.5 µM
  TGI: > 25 µM
SK-MEL-28 melanoma
  GI50: 16.9 µM
  TGI: > 25 µM
K-562 leukemia
  GI50: 7.94 µM
  TGI: > 20.3 µM
SW-620 colon
  GI50: 12 µM
  TGI: > 25 µM
HCT-116 colon
  GI50: 12.4 µM
  TGI: > 25 µM
HS 578T breast
  GI50: 14.4 µM
  TGI: 24.9 µM
ACHN renal
  GI50: 10.1 µM
  TGI: > 25 µM
786-0 renal
  GI50: 12.5 µM
  TGI: > 25 µM
